Measured values: ChEMBL document CHEMBL5576044, “Inhibition of kynurenine production by N,O-substituted hydroxylamine derivatives” (Bioorg Med Chem Lett, 2024)
The source made the active and inactive calls. The rule behind the calls is not given here.

Assays:
[1] = Drug metabolism in C57BL/6 mouse serum at 200 mg per mouse administered via IP measured after 2 hrs by LC-MS analysis; format: ADME
[2] = Inhibition of kynurenine production in human SK-OV-3 cells; format: functional, cell-based
[3] = Cytotoxicity against human SK-OV-3 cells; format: toxicity, cell-based
[4] = molecular target: Indoleamine 2,3-dioxygenase 1 (Homo sapiens) (UniProt P14902); test: Inhibition of recombinant human IDO1 at 10 ug/ml relative to control; conditions: dose 10.0 µg/ml
Indoleamine 2,3-dioxygenase 1 (Homo sapiens), sequence (P14902 whole entry, looked up): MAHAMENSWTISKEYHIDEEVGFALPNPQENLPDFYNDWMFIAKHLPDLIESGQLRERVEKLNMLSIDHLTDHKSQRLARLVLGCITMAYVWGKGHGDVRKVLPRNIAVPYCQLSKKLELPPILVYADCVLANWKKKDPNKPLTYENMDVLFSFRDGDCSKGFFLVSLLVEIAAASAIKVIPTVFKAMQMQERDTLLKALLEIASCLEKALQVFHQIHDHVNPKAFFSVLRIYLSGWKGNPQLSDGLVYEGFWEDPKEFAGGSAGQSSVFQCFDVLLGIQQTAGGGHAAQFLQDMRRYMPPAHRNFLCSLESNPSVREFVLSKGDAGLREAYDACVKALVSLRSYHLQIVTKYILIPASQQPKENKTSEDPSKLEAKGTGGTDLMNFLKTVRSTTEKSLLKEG

[5] = molecular target: Indoleamine 2,3-dioxygenase 1 (Homo sapiens) (UniProt P14902); test: Inhibition of IDO1 in human SK-OV-3 cells; format: cell-based
[6] = Drug concentration in C57BL/6 mouse serum at 200 mg per mouse administered via ip after 2 hrs by LC-MS analysis; format: ADME, organism-based; conditions: read-out: Drug uptake
[7] = Drug metabolism in C57BL/6 mouse serum at 200 mg per mouse administered via oral dosing measured after 2 hrs by LC-MS analysis; format: ADME
Mus musculus [8] = test: In vivo inhibition of kynurenine production in C57BL/6 mouse serum at 200 mg per mouse administered via oral dosing and measured after 2 hrs by LC-MS analysis; format: functional, organism-based
[9] = Drug concentration in C57BL/6 mouse serum at 200 mg per mouse administered via oral dosing after 2 hrs by LC-MS analysis; format: ADME; conditions: read-out: Drug uptake
Mus musculus [10] = test: In vivo inhibition of kynurenine production in C57BL/6 mouse serum at 200 mg per mouse administered via ip and measured after 2 hrs by LC-MS analysis; format: functional, organism-based
[11] = Drug degradation in human SK-OV-3 cell culture supernatant; format: ADME, cell-based
[12] = Drug metabolism in mouse serum assessed as N-Cbz-L-alanine formation after 1 hr; format: ADME, cell-free
Mus musculus [13] = test: In vivo inhibition of kynurenine production in iv dosed mouse serum by LC/MS analysis; format: functional, organism-based
[14] = Stability in mouse serum after 1 hr; format: ADME
[15] = molecular target: Signal transducer and activator of transcription 3 (Homo sapiens) (UniProt P40763); test: Inhibition of STAT3 phosphorylation in IFN-gamma activated human A549 cells at 5 to 40 microg/ml by Western blotting analysis; format: cell-based; conditions: dose 5-40 µg/ml
Signal transducer and activator of transcription 3 (Homo sapiens), sequence (P40763 whole entry): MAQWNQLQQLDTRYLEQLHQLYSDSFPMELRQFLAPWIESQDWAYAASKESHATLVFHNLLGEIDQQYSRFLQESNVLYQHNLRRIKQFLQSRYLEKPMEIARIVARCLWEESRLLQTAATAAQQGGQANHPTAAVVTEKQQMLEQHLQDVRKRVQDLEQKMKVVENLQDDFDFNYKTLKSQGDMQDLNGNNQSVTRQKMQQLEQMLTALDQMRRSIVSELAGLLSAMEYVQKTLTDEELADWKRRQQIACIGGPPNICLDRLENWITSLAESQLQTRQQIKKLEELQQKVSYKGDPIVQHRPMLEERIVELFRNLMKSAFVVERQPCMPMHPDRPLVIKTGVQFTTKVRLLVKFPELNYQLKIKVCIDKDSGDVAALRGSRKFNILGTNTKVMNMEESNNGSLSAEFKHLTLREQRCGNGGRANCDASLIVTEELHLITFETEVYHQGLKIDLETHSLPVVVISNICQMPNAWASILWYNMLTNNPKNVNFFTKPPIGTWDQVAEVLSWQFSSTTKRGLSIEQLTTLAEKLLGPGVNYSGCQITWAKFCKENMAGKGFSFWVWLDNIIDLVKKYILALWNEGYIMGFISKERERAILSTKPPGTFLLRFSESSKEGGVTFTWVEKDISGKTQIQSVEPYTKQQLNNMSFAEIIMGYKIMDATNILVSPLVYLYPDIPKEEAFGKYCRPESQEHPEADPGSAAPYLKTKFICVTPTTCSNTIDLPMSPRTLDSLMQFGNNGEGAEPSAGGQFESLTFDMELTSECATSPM

A549 = test: Reduction in IFN-gamma activated IDO1 expression level in human A549 cells at 1.25 to 40 microg/ml by Western blotting analysis; format: functional, cell-based; conditions: dose 1.25-40 µg/ml
Mus musculus [16] = test: In vivo inhibition of kynurenine production in C57BL/6 mouse serum at 100 mg per mouse administered via oral dosing and measured after 2 hrs by LC-MS analysis; format: functional, organism-based
[17] = Drug metabolism in human SK-OV-3 cell culture supernatant assessed as O-benzylhydroxylamine Hydrochloride formation after 24 hrs; format: ADME, cell-based; conditions: sk-ov-3, 24 h
[18] = Drug concentration in C57BL/6 mouse serum at 100 mg per mouse administered via oral dosing after 2 hrs by LC-MS analysis; format: ADME; conditions: read-out: Drug uptake
[19] = Drug metabolism in human SK-OV-3 cell culture supernatant assessed as O-4-nitrobenzyl hydroxylamine Hydrochloride formation after 24 hrs; format: ADME, cell-based; conditions: sk-ov-3, 24 h

With `O=C(NOCc1ccc([N+](=O)[O-])cc1)C12CC3CC(CC(C3)C1)C2` the Drug metabolism [1] was “Metabolite_Detected”, the IC50 [2] was 17 µM and the IC50 [3] was greater than 100 µM. The inhibition [4] was 12%, the inhibition [5] was “inactive” and the concentration at 2 h [6] was 0.018 µM. The Drug metabolism [7] was “Metabolite_Detected”, the inhibition (Mus musculus [8]) was “inactive” and the concentration at 2 h [9] was 0.003 µM. The inhibition (Mus musculus [10]) was “inactive” and the Stability [11] was “Stable”.

With `O=C(N[C@@H](CO)C(=O)NCCc1ccccc1)OCc1ccccc1` the IC50 [2] was greater than 100 µM, the IC50 [3] was greater than 100 µM and the inhibition [4] was -5.1%.

For `O=C(N[C@@H](Cc1c[nH]c2ccccc12)C(=O)NOCc1ccccc1)OCc1ccccc1`, the IC50 [2] was 12 µM, the IC50 [3] was greater than 100 µM and the inhibition [4] was 4.9%.

Work on `O=[N+]([O-])c1ccc(CONS(=O)(=O)Cc2ccccc2)cc1` yielded an IC50 [2] greater than 100 µM, an IC50 [3] greater than 100 µM and an inhibition [4] of 0.19%.

In the case of `Cl.NOCc1ccc([N+](=O)[O-])cc1`, the IC50 [2] is reported as 8 µM, the IC50 [3] is reported as greater than 100 µM and the inhibition [4] is reported as 100%. For the same compound, the inhibition [5] was “Active” and the Stability [11] was “Unstable”.

`C[C@H](NC(=O)OCc1ccccc1)C(=O)NOCc1ccccc1` showed an IC50 [2] of 5.2 µM, an IC50 [3] greater than 100 µM and an inhibition [4] of -9.4%. The Drug metabolism [12] was “Metabolite_Detected”, the inhibition (Mus musculus [13]) was “inactive” and the Stability [14] was “Unstable”.

`O=C(N[C@@H](CO)C(=O)Nc1ccccc1O)OCc1ccccc1` gave an IC50 [2] greater than 100 µM, an IC50 [3] greater than 100 µM and an inhibition [4] of 2.9%.

For `N[C@@H](CO)C(=O)NOCc1ccccc1`, the IC50 [2] was 5.5 µM, the IC50 [3] was greater than 100 µM and the inhibition [4] was 0%.

In the case of `CC12CC3CC(C)(C1)CC(C(=O)NOCc1ccccc1)(C3)C2`, the IC50 [2] is reported as greater than 100 µM, the IC50 [3] is reported as greater than 100 µM and the inhibition [4] is reported as 7.9%.

For `O=C(N[C@@H](CO)C(=O)NOCc1ccccc1)OCc1ccccc1`, the IC50 [2] was 4.6 µM, the IC50 [3] was greater than 100 µM and the inhibition [4] was 10%. For the same compound, the inhibition [5] was “Active”, the inhibition [15] was “inactive” and the Activity (A549) was “inactive”.

`O=C(NOCc1ccc([N+](=O)[O-])cc1)C12CC3CC(CC(O)(C3)C1)C2` showed an IC50 [2] greater than 100 µM, an IC50 [3] greater than 100 µM and an inhibition [4] of -3.3%.

For `O=C(N[C@@H](CO)C(=O)O)OCc1ccccc1`, the IC50 [2] was greater than 100 µM, the IC50 [3] was greater than 100 µM and the inhibition [4] was -5.5%.

With `CONC(=O)[C@H](CO)NC(=O)OCc1ccccc1` the IC50 [2] was greater than 100 µM, the IC50 [3] was greater than 100 µM and the inhibition [4] was -8.3%.

For `NS(=O)(=O)NCCNc1nonc1/C(=N/O)Nc1ccc(F)c(Br)c1`, the inhibition (Mus musculus [16]) was “Active”.

`O=C(N[C@H](CO)C(=O)NOCc1ccccc1)OCc1ccccc1` gave an IC50 [2] of 5.1 µM, an IC50 [3] greater than 100 µM and an inhibition [4] of 5.6%. The Drug metabolism [17] was “Metabolite_Detected”.

In the case of `NS(=O)(=O)NCCNc1nonc1C(=NO)Nc1ccc(F)c(Br)c1` [EPACADOSTAT], the concentration at 2 h [18] is reported as 1.4 µM.

Work on `O=C(N[C@@H](CO)C(=O)NOCc1ccc([N+](=O)[O-])cc1)OCc1ccccc1` yielded an IC50 [2] of 5.5 µM, an IC50 [3] greater than 100 µM and an inhibition [4] of -9.2%. The inhibition [5] was “Active” and the Drug metabolism [19] was “Metabolite_Detected”.

For `NOCc1ccccc1`, the IC50 [2] was 10 µM, the IC50 [3] was greater than 100 µM and the inhibition [4] was 100%. The inhibition [5] was “Active”.

Work on `O=C(NOCc1ccc([N+](=O)[O-])cc1)[C@H](O)c1ccccc1` yielded an IC50 [2] of 24 µM, an IC50 [3] greater than 100 µM and an inhibition [4] of 9%. For the same compound, the inhibition [5] was “inactive”.
